{"source": "patent US20030147850A1", "about": "(priority 2002, published 2003)", "tested_on": "vesicular stomatitis virus (VSV)", "assay_type": "cell-based", "data": [{"substance": "Disodium succinate hexahydrate", "values": [{"measurement": "CPE inhibition, % of IFN control", "value": 0, "unit": "%"}]}]}
